The values below come from ChEMBL document CHEMBL5154802, “Leveraging Structure-Based Drug Design to Identify Next-Generation MAT2A Inhibitors, Including Brain-Penetrant and Peripherally Efficacious Leads” (J Med Chem, 2022).

The target of series [1] is T1, S-adenosylmethionine synthase isoform type-2 (Homo sapiens, UniProt P31153). Nature of the series: Inhibition of […] in MTAP-null human HCT-116 cells after 72 hrs by LC-MS/MS analysis. The class given is cell-based, HCT116-MTAP null.
Target sequence in this assay (P31153 whole entry, canonical isoform): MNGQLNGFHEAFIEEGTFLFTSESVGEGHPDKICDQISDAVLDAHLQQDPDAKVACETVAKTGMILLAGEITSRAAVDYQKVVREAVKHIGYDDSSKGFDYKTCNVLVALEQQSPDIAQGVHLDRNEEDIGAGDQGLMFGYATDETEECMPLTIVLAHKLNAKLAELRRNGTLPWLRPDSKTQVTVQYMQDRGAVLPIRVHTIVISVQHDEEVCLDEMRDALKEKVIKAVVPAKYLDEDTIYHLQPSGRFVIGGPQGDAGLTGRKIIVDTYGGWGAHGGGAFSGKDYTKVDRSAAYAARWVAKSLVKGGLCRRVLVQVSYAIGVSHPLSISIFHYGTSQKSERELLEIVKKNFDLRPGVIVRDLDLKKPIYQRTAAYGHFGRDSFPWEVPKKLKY
For series [2], the target named is T1, S-adenosylmethionine synthase isoform type-2. In words: Inhibition of […] in MTAP-null human HCT-116 cells after 72 hrs by LC-MS/MS analysis relative to control. Particulars: HCT116-MTAP null. The class given is cell-based.
Target sequence in this assay (P31153 whole entry, looked up, canonical isoform): as the sequence (P31153 whole entry, canonical isoform) above
For series [3] the target is unchanged. In words: Inhibition of recombinant human MAT2A expressed in baculovirus infected Sf9 cells assessed as S-adenosyl methionine production using L-methionine as substrate preincubated for 60 mins followed by substrate addition and measured after 60 mins in presence of ATP.
Target sequence in this assay (P31153 whole entry, canonical isoform): as above
Series [4] has the same target. Nature of the series: Inhibition of recombinant human MAT2A expressed in baculovirus infected Sf9 cells assessed as S-adenosyl methionine production using L-methionine as substrate preincubated for 60 mins followed by substrate addition and measured after 60 mins in presence of ATP relative to control.
Target sequence in this assay (P31153 whole entry, looked up, canonical isoform): as the sequence (P31153 whole entry, canonical isoform) above
Series [5] is described as follows: In vivo inhibition of MAT2A in human HCT116-MTAP null cells xenografted po dosed nu/nu mouse model assessed as plasma exposure required for reduction in tumor SAM level. The format is functional. On the technique in general: In xenograft studies the graft and the host belong to different species.
The subject of the next series is KP-4. In words: Antitumor activity against human KP-4 cells xenografted in CB17-SCID mouse assessed as tumor growth inhibition […] at 30 to 60 mg/kg, po QD for 13 days. The class given is functional, organism-based. Particulars: dose 30-60 mg/kg, time 13.0 day.
In a further series the target is T2, PXR (NR1I2) (Homo sapiens, UniProt O75469).
T2 sequence (O75469 whole entry): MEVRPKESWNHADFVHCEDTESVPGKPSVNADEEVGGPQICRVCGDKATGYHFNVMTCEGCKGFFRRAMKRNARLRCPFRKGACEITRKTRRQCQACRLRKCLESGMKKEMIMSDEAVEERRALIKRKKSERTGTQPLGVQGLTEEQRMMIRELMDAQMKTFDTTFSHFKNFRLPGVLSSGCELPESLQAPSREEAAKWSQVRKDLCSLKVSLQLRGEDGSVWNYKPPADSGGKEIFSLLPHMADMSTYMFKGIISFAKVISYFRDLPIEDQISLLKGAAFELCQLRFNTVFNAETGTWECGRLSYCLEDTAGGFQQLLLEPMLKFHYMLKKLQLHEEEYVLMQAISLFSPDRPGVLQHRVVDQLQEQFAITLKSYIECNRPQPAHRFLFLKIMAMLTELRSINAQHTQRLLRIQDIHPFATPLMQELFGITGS
Nature of the series: Transactivation of human PXR transfected in HepG2 cells assessed as CYP450 induction by measuring fold activation at 10 uM by luciferase reporter gene assay. The format is ADME, cell-based. To be noted: HepG2 cells transfected with human PXR, read-out: FC. In general terms: In a reporter assay the amount or activity of a reporter protein is the signal.

The nature of series [6]: Ratio of drug concentration in brain to plasma of mouse at 10 mg/kg, po measured at 1 to 4 hrs post dose. The class given is ADME, organism-based. Particulars: brain and plasma, time 1-4 hrs.
The test system of the next series is HCT116-MTAP null. In words: Antitumor activity against human HCT116-MTAP null cells xenografted in nu/nu mouse assessed as inhibition of tumor […] at 10 to 30 mg/kg, po QD for 21 days. The format is functional, organism-based. Particulars: dose 10-30 mg/kg, time 21.0 day.
The nature of series [7]: Inhibition of MAT2A in human HCT116-MTAP null cells xenografted po dosed nu/nu mouse model assessed as plasma exposure required for reduction in periphery SAM level. The format is functional.

SMILES strings stand for the structures. pIC50: −log10 of the molar value. Calls of active or inactive are those of the source. No cut-off for these calls is given here.

On to `Cc1nc2ccc(-n3cc4cnc(NCC(F)(F)F)nc4c(-c4ccc(Cl)cc4)c3=O)cc2n1C`, for which the pIC50 in [1] was 7.68. In [2], the Imax came to 80%.
Regarding `COc1ccc(-n2cc3cnc(NCC(F)(F)F)nc3c(-c3ccc(Br)cc3)c2=O)cc1`, the results for the pIC50 in series [3] and in series [1] were 7.66 and 7.47, respectively. Moreover, the results for the Imax in series [4] and in series [2] were 94% and 84%, respectively. The fIC50 in series [5] is on record as 10.2 nM. Also, in the series on KP-4, the outcome was Active.
As to `COc1ccc(N2Cc3cnc(NCC4CC4)nc3C3(CCN(Cc4ccon4)C3)C2=O)cc1` (configuration not stated), in series [3], the pIC50 was 6.28. Moreover, in [4], the Imax stood at 50%.
Turning to `COc1ccc(N2Cc3cnc(NCC4CC4)nc3C3(CCN(Cc4ccsc4)C3)C2=O)cc1` (configuration not stated), the pIC50 in [3] was 6.29. Further, in [4], the Imax came to 38%.
Regarding `COc1ccc(N2Cc3c(C)nc(NCC4CC4)nc3C3(CCN(Cc4ccccc4F)C3)C2=O)cc1` (configuration not stated), the pIC50 in series [3] was 6.60. The Imax in series [4] came out at 50%.
The compound `CCOc1ccc2cn(-c3ccc4nn(C)cc4c3)c(=O)c(-c3ccc(Cl)cc3)c2n1` showed a pIC50 in [1] of 7.64. In addition, the Imax in series [2] turned out to be 89%. The fIC50 in series [5] is recorded as 9.8 nM.
For `COc1ccc(N2Cc3cnc(NCC4CC4)nc3C3(CCN(Cc4cnc(N)s4)C3)C2=O)cc1` (configuration not stated), the pIC50 in series [3] is 6.39. Further, the Imax in series [4] was 38%.
In turn, `Cn1cc2cc(-n3cc4ccc(NCC(F)(F)F)nc4c(-c4ccc(Cl)cc4)c3=O)ccc2n1` showed a negative logarithm of the IC50 (pIC50) in series [1] of 7.96. The compound also yielded an Imax in [2] of 82%.
With `Cc1nc(NCC2CC2)nc2c1COCC21CCN(Cc2ccccc2F)C1` (configuration not stated), the pIC50 in series [3] is 5.14. For the same compound, the Imax in [4] was 46%.
For `COc1ccc(-n2cc3cnc(N(C)CC(F)(F)F)nc3c(-c3ccc(Br)cc3)c2=O)cc1` the same measures were 5.48 and 71%.
Compound `Cn1cnc2ccc(-n3cc4cnc(NCC(F)(F)F)nc4c(-c4ccc(Cl)cc4)c3=O)cc21` showed a pIC50 in series [1] of 7.51. The compound also gave an Imax in series [2] of 80%.
Regarding `COc1ccc(-n2cc3cnc(NCCC(F)(F)F)nc3c(-c3ccc(Br)cc3)c2=O)cc1`, in series [3], the negative-log IC50 (pIC50) was 6.49. Moreover, the Imax in series [4] was 69%.
Take `COc1ccc(-n2cc3cnc(NCC(F)(F)F)nc3c(-c3ccc(Cl)cc3)c2=O)cc1`: in series [1], the pIC50 was 6.95. Besides, the Imax in series [2] stood at 83%.
`COc1ccc(-n2cc3cnc(NCC4CC4)nc3c(-c3ccc(Br)cc3)c2=O)cc1`: the pIC50 in [3] was 7.27. Besides, in series [4], the Imax was 88%.
For `O=c1c(-c2ccc(Br)cc2)c2nc(NCC(F)(F)F)ncc2cn1-c1ccc2ncccc2c1`, in series [1], the pIC50 is 7.34. The Imax in series [2] worked out at 84%. Further, the fold induction at 10 µM on PXR (NR1I2) came out at 5.3. Further, the Kp in series [6] was determined as 0.1.
For `Cn1cc2cc(-n3cc4ccc(OCC(F)F)nc4c(-c4ccc(Cl)cc4)c3=O)ccc2n1`, in [1], the pIC50 was 7.89. In series [2], the Imax is 88%. For the same compound, the fold induction at 10 µM on PXR (NR1I2) was determined as 3.8.
Consider `CCNc1ncc2cn(-c3ccc(OC)cc3)c(=O)c(-c3ccc(Br)cc3)c2n1`, for which the pIC50 in series [3] is 7.47. Also, in series [4], the Imax stood at 91%.
The compound `Cn1cc2cc(-n3cc4cnc(NCC(F)(F)F)nc4c(-c4ccc(Cl)cc4)c3=O)ccc2n1` had a negative-log IC50 (pIC50) in [1] of 7.85. Further, the Imax in [2] turned out to be 80%. The fIC50 in [5] is listed as 1.8 nM; in series [7] it was 2 nM. For the same compound, the result with HCT116-MTAP null was Active.
Take `CCNc1ccc2cn(-c3ccc4nn(C)cc4c3)c(=O)c(-c3ccc(Cl)cc3)c2n1`: the pIC50 in series [1] was 8.00. In series [2], this compound yielded an Imax of 81%.
As for `COc1ccc(N2Cc3cnc(NCC4CC4)nc3C3(CCN(Cc4ccccc4F)C3)C2=O)cc1` (configuration not stated), the pIC50 in series [3] is 6.49. For the same compound, in series [4], the Imax came out at 38%.
For the compound `COc1ccc(N2Cc3cnc(NCC4CC4)nc3C3(CCN(Cc4cc[nH]n4)C3)C2=O)cc1` (configuration not stated), the pIC50 in [3] is 6.16. Further, the Imax in [4] amounted to 88%.
In the case of `COc1ccc(N2Cc3cnc(NCC4CC4)nc3C3(CCN(Cc4cscn4)C3)C2=O)cc1` (configuration not stated), the pIC50 in series [3] is 6.21. In addition, the Imax in [4] was found to be 62%.
Consider `Cn1cc2cc(-n3cc4ccc(OCC(F)(F)F)nc4c(-c4ccc(Cl)cc4)c3=O)ccc2n1`, for which the negative-log IC50 (pIC50) in series [1] is 7.49. Moreover, the Imax in series [2] turned out to be 82%.
For `Cn1cc2cc(-n3cc4ccc(CCC(F)(F)F)nc4c(-c4ccc(Cl)cc4)c3=O)ccc2n1`, the negative logarithm of the IC50 (pIC50) in series [1] is 7.00. Moreover, the Imax in series [2] amounted to 76%.
`O=c1c(-c2ccc(Cl)cc2)c2nc(NCC(F)(F)F)ncc2cn1-c1ccc2ncccc2c1` gave a pIC50 in series [1] of 7.10. For the same compound, the Imax in series [2] was 83%.
Consider `COc1ccc(N2Cc3cnc(NCC4CC4)nc3C3(CCN(Cc4cn[nH]c4)C3)C2=O)cc1` (configuration not stated), for which the negative logarithm of the IC50 (pIC50) in series [3] is 5.11. For the same compound, in [4], the Imax turned out to be 60%.
With `COc1ccc(N2Cc3cnc(NCC4CC4)nc3C3(CCN(Cc4cc[nH]c4)C3)C2=O)cc1` (configuration not stated), in series [3], the pIC50 is 5.70. Also, the Imax in [4] came out at 34%.
Regarding `CCCNc1ncc2cn(-c3ccc(OC)cc3)c(=O)c(-c3ccc(Br)cc3)c2n1`, the pIC50 in [3] is 7.32. Further, in series [4], the Imax was 73%.

What is called pIC50 is −log10 of the IC50, conventionally taken in molar units. Usually Kp stands for the ratio of the level in a tissue or fluid to that in plasma or blood.
